# Source: patent publication US20050214886A1, “TNF modulation” (YEDA RESEARCH AND DEVELOPMENT CO. LTD., priority 1995, published 2005)
# System: 26 kDa TNF molecules in HeLa-M9 cells
# Test: [32P] metabolic labeling and immunoprecipitation: phosphorylation of 26 kDa TNF
# Assay type: cell-based, human
# Details: preliminary experiments, data not shown
# Text: The intracellular region is the only part of the TNF molecule accessible for phosphorylation by cytoplasmic protein kinases. The specific kinases involved in TNF phosphorylation are not known, nor is it known if, and in what way, the activity of these kinases is subject to modulation by agents that affect TNF activity. Evidently, the phosphorylation observed in the HeLa-M9 cells, in which TNF was synthesized without stimulation, reflects the function of kinase(s) that constitutively act in these cells. On the other hand, the phosphorylation observed in the LPS-stimulated MM6 cells could involve effects of LPS activated protein kinases (Liu et al., 1994; Han et al., 1995). The serine at position −50 seems to be a suitable substrate for phosphorylation by protein kinase C (Kennelly and Krebs, 1991).
# Labeling of cells with [^35S]Met or [^32P) orthophosphate was performed by incubation in Met-free or phosphate-free medium, supplemented with 5 or 10% FCS, that had been dialyzed against either PBS or 0.9% NaCl, respectively. […]
# Immunoprecipitation was performed using sheep anti-TNF antiserum or, as a control, non-immune sheep serum, at a dilution of 1:200. […] The immunoprecipitated proteins were analyzed by SDS-PAGE under reducing conditions (12% acrylamide). […]
smiles,measurement,value
CCCCCCCCCCCCCC(=O)O[C@@H]1[C@@H](C)[C@@]2(O)[C@@H](C=C(CO)C[C@]3(O)C(=O)C(C)=C[C@@H]23)[C@@H]2C(C)(C)[C@]12OC(C)=O [4β-phorbol-12-myristate-13-acetate],increase of phosphorylation of the 26 kDa TNF molecules,did not observe any increase of phosphorylation
